Like-named read-outs stand apart in the source and are kept apart here.
Legend:
Format in all cases: cell-based
[1] = test system: SARS-CoV-2 pseudovirus (B.1.526.2)
[2] = test system: Epithelial cells; experiment: Interaction of GFP-labelled complexes with cell membrane of epithelial cells (Example II-52, Table II-30); settings: GFP-labelled complex, epithelial cells pretreated 4 hours, n=3
Experimental: The fatty acids were combined with water-soluble small molecules to form a complex, which were labeled with GFP fluorescence to detect cell membrane fluorescence. […] After the cells were stably adhered, the water-soluble fatty acid complexes in the following table were added to the cell culture medium. […] The medium with the drug was pipetted and replaced with normal DMEM medium. […] The green fluorescence intensity was analyzed by imageJ (see Table II-30, n=3).

[3] = test system: 293T cells; experiment: Cellular phagocytosis of DiD-loaded lipid vesicles (nano-drugs) by 293T cells (Example II-51, Table II-29); settings: 293T cells pretreated 4 h, DiD lipid vesicles 2 h, n=3, untreated control 226.46 ± 1.26
[4] = test system: Hela cells; experiment: Cell membrane fluidity (Laurdan fluorescence recovery) in Hela cells

Uridine diphosphate glucose-dodecanoic acid [UDPGA-C12]
Inhibition rate (%) ([1]; 0.002 µM): 56.54 ± 3.94%
Inhibition rate (%) ([1]; 0.005 µM): 79.66 ± 3.69%
Inhibition rate (%) ([1]; 0.01 µM): 91.38 ± 3.36%
Inhibition rate (%) ([1]; 0.05 µM): 81.33 ± 1.25%
Inhibition rate (%) ([1]; 0.1 µM): 87.47 ± 8.23%
Inhibition rate (%) ([1]; 1 µM): -92.93 ± 0.58%
Inhibition rate (%) ([1]; 10 µM): 73.16 ± 0.59%
Inhibition rate (%) ([1]; 50 µM): 67.37 ± 0.54%
Inhibition rate (%) ([1]; 100 µM): 53.98 ± 0.78%

CCCCCCCCCCCCC(=O)OC(C)C(N)C(=O)O (stereo not drawn) [Thr-tridecaneoic acid]
Mean fluorescence intensity ([2]; 0 Hours after medium replaced): 106.5 ± 6.4
Mean fluorescence intensity ([2]; 2 Hours after medium replaced): 104.3 ± 7.8
Mean fluorescence intensity ([2]; 4 Hours after medium replaced): 96.6 ± 2.6
Mean fluorescence intensity ([2]; 8 Hours after medium replaced): 53.5 ± 2.6
Mean fluorescence intensity ([2]; 12 Hours after medium replaced): 42.5 ± 4.2
Mean fluorescence intensity ([2]; 24 Hours after medium replaced): 39.0 ± 4.3

C=CCCCCCCCCC(=O)NCCCCC(N)C(=O)O (stereo not drawn) [Lys-10-undecenoic acid]
Mean fluorescence intensity ([2]; 0 Hours after medium replaced): 135.6 ± 2.4
Mean fluorescence intensity ([2]; 2 Hours after medium replaced): 130.8 ± 6.7
Mean fluorescence intensity ([2]; 4 Hours after medium replaced): 118.2 ± 9.0
Mean fluorescence intensity ([2]; 8 Hours after medium replaced): 89.5 ± 4.4
Mean fluorescence intensity ([2]; 12 Hours after medium replaced): 58.6 ± 5.7
Mean fluorescence intensity ([2]; 24 Hours after medium replaced): 49.6 ± 0.5

cholyltaurine-tetradecanoic acid [cholyltaurine-C14]
Inhibition rate (%) ([1]; 2 nM, n=3): 70.54 ± 3.20%
Inhibition rate (%) ([1]; 5 nM, n=3): 79.66 ± 5.66%
Inhibition rate (%) ([1]; 10 nM, n=3): 81.84 ± 4.57%
Inhibition rate (%) ([1]; 50 nM, n=3): 80.88 ± 1.22%
Inhibition rate (%) ([1]; 100 nM, n=3): 79.06 ± 2.22%
Inhibition rate (%) ([1]; 1 μM, n=3): -94.23 ± 5.55%
Inhibition rate (%) ([1]; 10 μM, n=3): 4.26 ± 0.95%
Inhibition rate (%) ([1]; 50 μM, n=3): 67.55 ± 0.25%
Inhibition rate (%) ([1]; 100 μM, n=3): 58.98 ± 0.44%

CCCCCC=CCC=CCCCCCCCC(=O)OC(C)C(N)C(=O)O (stereo not drawn) [Threonine-LA]
Fluorescence intensity ([3]; 2 nM): 100.46 ± 4.23
Fluorescence intensity ([3]; 5 nM): 64.18 ± 0.47
Fluorescence intensity ([3]; 10 nM): 43.39 ± 0.55
Fluorescence intensity ([3]; 50 nM): 45.68 ± 0.23
Fluorescence intensity ([3]; 100 nM): 54.37 ± 0.63
Fluorescence intensity ([3]; 1 uM): 412.90 ± 0.43
Fluorescence intensity ([3]; 10 uM): 507.63 ± 0.23
Fluorescence intensity ([3]; 50 uM): 64.86 ± 0.19
Fluorescence intensity ([3]; 100 uM): 27.22 ± 0.16
Inhibition rate (%) ([1]; 2 nM, n=3): 55.64 ± 1.68%
Inhibition rate (%) ([1]; 5 nM, n=3): 71.66 ± 2.98%
Inhibition rate (%) ([1]; 10 nM, n=3): 80.84 ± 4.59%
Inhibition rate (%) ([1]; 50 nM, n=3): 79.83 ± 8.55%
Inhibition rate (%) ([1]; 100 nM, n=3): 75.99 ± 2.66%
Inhibition rate (%) ([1]; 1 μM, n=3): -82.33 ± 0.87%
Inhibition rate (%) ([1]; 10 μM, n=3): -124.16 ± 0.47%
Inhibition rate (%) ([1]; 50 μM, n=3): 71.36 ± 0.48%
Inhibition rate (%) ([1]; 100 μM, n=3): 87.98 ± 0.55%

CCCCCCCCCCCCCCCCCC(=O)NCCCCC(N)C(=O)O (stereo not drawn) [Lys-stearic acid]
Fluorescence recovery rate % ([4]; 2 nM, 20 s): 64.38%
Fluorescence recovery rate % ([4]; 2 nM, 40 s): 65.33%
Fluorescence recovery rate % ([4]; 2 nM, 60 s): 66.78%
Fluorescence recovery rate % ([4]; 2 nM, 80 s): 65.32%
Fluorescence recovery rate % ([4]; 5 nM, 20 s): 63.98%
Fluorescence recovery rate % ([4]; 5 nM, 40 s): 64.03%
Fluorescence recovery rate % ([4]; 5 nM, 60 s): 64.52%
Fluorescence recovery rate % ([4]; 5 nM, 80 s): 64.77%
Fluorescence recovery rate % ([4]; 10 nM, 20 s): 64.41%
Fluorescence recovery rate % ([4]; 10 nM, 40 s): 64.81%
Fluorescence recovery rate % ([4]; 10 nM, 60 s): 65.40%
Fluorescence recovery rate % ([4]; 10 nM, 80 s): 65.86%
Fluorescence recovery rate % ([4]; 50 nM, 20 s): 65.08%
Fluorescence recovery rate % ([4]; 50 nM, 40 s): 65.47%
Fluorescence recovery rate % ([4]; 50 nM, 60 s): 65.55%
Fluorescence recovery rate % ([4]; 50 nM, 80 s): 66.26%
Fluorescence recovery rate % ([4]; 50 μM, 20 s): 65.84%
Fluorescence recovery rate % ([4]; 50 μM, 40 s): 71.51%
Fluorescence recovery rate % ([4]; 50 μM, 60 s): 75.97%
Fluorescence recovery rate % ([4]; 50 μM, 80 s): 80.33%
Fluorescence recovery rate % ([4]; 100 μM, 20 s): 64.77%
Fluorescence recovery rate % ([4]; 100 μM, 40 s): 70.54%
Fluorescence recovery rate % ([4]; 100 μM, 60 s): 73.46%
Fluorescence recovery rate % ([4]; 100 μM, 80 s): 78.44%
Mean fluorescence intensity ([2]; 0 Hours after medium replaced): 105.3 ± 5.2
Mean fluorescence intensity ([2]; 2 Hours after medium replaced): 103.4 ± 2.7
Mean fluorescence intensity ([2]; 4 Hours after medium replaced): 98.3 ± 2.5
Mean fluorescence intensity ([2]; 8 Hours after medium replaced): 56.5 ± 5.6
Mean fluorescence intensity ([2]; 12 Hours after medium replaced): 46.7 ± 8.5
Mean fluorescence intensity ([2]; 24 Hours after medium replaced): 39.0 ± 5.3

NC(CCCCNC(=O)CCCCCCCCCCCC(=O)O)C(=O)O (stereo not drawn) [Lys-tridecanedioic acid]
Mean fluorescence intensity ([2]; 0 Hours after medium replaced): 134.4 ± 5.7
Mean fluorescence intensity ([2]; 2 Hours after medium replaced): 125.0 ± 6.9
Mean fluorescence intensity ([2]; 4 Hours after medium replaced): 113.9 ± 4.2
Mean fluorescence intensity ([2]; 8 Hours after medium replaced): 64.3 ± 1.6
Mean fluorescence intensity ([2]; 12 Hours after medium replaced): 48.4 ± 6.8
Mean fluorescence intensity ([2]; 24 Hours after medium replaced): 42.0 ± 2.6

CCCCCCCCC(=O)OCC(O)C1OC(=O)C(O)=C1O (stereo not drawn) [Vc-nonanoic acid]
Mean fluorescence intensity ([2]; 0 Hours after medium replaced): 129.5 ± 6.7
Mean fluorescence intensity ([2]; 2 Hours after medium replaced): 115.6 ± 6.8
Mean fluorescence intensity ([2]; 4 Hours after medium replaced): 93.7 ± 4.2
Mean fluorescence intensity ([2]; 8 Hours after medium replaced): 46.3 ± 5.7
Mean fluorescence intensity ([2]; 12 Hours after medium replaced): 36.4 ± 5.6
Mean fluorescence intensity ([2]; 24 Hours after medium replaced): 33.0 ± 7.0

Uridine diphosphate glucose-oleic acid [UDPGA-OA]
Inhibition rate (%) ([1]; 0.002 µM): 44.54 ± 1.23%
Inhibition rate (%) ([1]; 0.005 µM): 50.06 ± 1.05%
Inhibition rate (%) ([1]; 0.01 µM): 54.94 ± 1.84%
Inhibition rate (%) ([1]; 0.05 µM): 67.33 ± 1.00%
Inhibition rate (%) ([1]; 0.1 µM): 84.96 ± 4.55%
Inhibition rate (%) ([1]; 1 µM): -82.33 ± 0.53%
Inhibition rate (%) ([1]; 10 µM): -54.00 ± 0.23%
Inhibition rate (%) ([1]; 50 µM): 73.06 ± 0.26%
Inhibition rate (%) ([1]; 100 µM): 83.61 ± 0.88%

From patent US20260166162A1, “CARBON CHAIN SUBSTANCE FOR REGULATING TRANSMEMBRANE TRANSPORT AND FLUIDITY OF CELL MEMBRANES, AND PREPARATION AND USE THEREOF” (priority 2022, published 2026)
